Experimental data as given in ChEMBL document CHEMBL1136922, “Antitumor agents. 266. Design, synthesis, and biological evaluation of novel 2-(furan-2-yl)naphthalen-1-ol derivatives as potent and selective antibreast cancer agents” (2009).
Converted amounts (≈) assume the structure as drawn.

What was measured:
Type in all cases: functional
SK-BR-3 = assay: Cytotoxicity against estrogen receptor deficient human SKBR3 cells overexpressing human epidermal growth factor receptor 2 after 72 hrs by SRB assay; settings: SK-BR-3, 72 h, read-out: ED50 (the source's name)
MCF7 = assay: Cytotoxicity against human MCF7 cells expressing estrogen receptor after 72 hrs by SRB assay; settings: MCF7, 72 h, read-out: ED50 (the source's name)
A549 = assay: Cytotoxicity against human A549 cells after 72 hrs by SRB assay; settings: A549, 72 h, read-out: ED50 (the source's name)
[1] = Cytotoxicity against vincristine-resistant human KBVIN cells after 72 hrs by SRB assay; settings: read-out: ED50 (the source's name)
MDA-MB-231 = assay: Cytotoxicity against estrogen receptor deficient human MDA-MB-231 cells after 72 hrs by SRB assay; settings: MDA-MB-231, 72 h, read-out: ED50 (the source's name)
KB = assay: Cytotoxicity against human KB cells after 72 hrs by SRB assay; settings: read-out: ED50 (the source's name)
ZR-75-1 [2] = assay: Selectivity ratio of ED50 for human MCF7 cells expressing estrogen receptor to ED50 for human ZR-75-1 cells expressing estrogen receptor and HER2
DU-145 = assay: Cytotoxicity against human DU145 cells after 72 hrs by SRB assay; settings: DU-145, 72 h, read-out: ED50 (the source's name)
ZR-75-1 [3] = assay: Cytotoxicity against human ZR-75-1 cells expressing estrogen receptor and HER2 after 72 hrs by SRB assay; settings: ZR-75-1, 72 h, read-out: ED50 (the source's name)
ZR-75-1 [4] = assay: Selectivity ratio of ED50 for estrogen receptor deficient human SKBR3 cells overexpressing HER2 to ED50 for human ZR-75-1 cells expressing estrogen receptor and HER2

Structure (SMILES) | EC50 (SK-BR-3) [µg/mL] | EC50 (MCF7) [µg/mL] | EC50 (A549) [µg/mL] | EC50 [1] [µg/mL] | EC50 (MDA-MB-231) [µg/mL] | EC50 (KB) [µg/mL] | Ratio ED50 (ZR-75-1 [2]) | EC50 (DU-145) [µg/mL] | EC50 (ZR-75-1 [3]) [µg/mL] | Ratio ED50 (ZR-75-1 [4])
Cc1coc(-c2ccc3ccccc3c2O)c1CO | 9.5 (≈ 37.4 µM) | 7 (≈ 27.5 µM) |  |  |  |  |  |  |  | 
CCc1cccc2c1ccc1c3occ(C)c3c(=O)oc21 | 0.1 (≈ 0.359 µM) | 0.2 (≈ 0.719 µM) | 10.6 (≈ 38.1 µM) | 13.2 (≈ 47.4 µM) | > 10 | 13.1 (≈ 47.1 µM) | 2 | 15.9 (≈ 57.1 µM) | 0.1 (≈ 0.359 µM) | 
Cc1cccc2c(OC(=O)c3ccoc3)cccc12 | > 20 | > 20 |  |  |  |  |  |  |  | 
C#CCOc1cc(=O)oc2c1ccc1ccccc12 | 16 (≈ 63.9 µM) | 20 (≈ 79.9 µM) |  |  |  |  |  |  |  | 
Cc1coc2c1c(=O)oc1c3ccccc3ccc21 | 1 (≈ 4 µM) | 4 (≈ 16 µM) |  |  |  |  |  |  |  | 
CCc1cccc2c(O)c(-c3occ(C)c3CO)ccc12 | 12.8 (≈ 45.3 µM) | 12 (≈ 42.5 µM) |  |  |  |  |  |  |  | 
CC/C(=C(\c1ccccc1)c1ccc(OCCN(C)C)cc1)c1ccccc1 [TAMOXIFEN] | 5 (≈ 13.5 µM) | 5 (≈ 13.5 µM) |  |  |  |  |  |  |  | 
CCc1cccc2c(O)c(-c3occ(C)c3C(=O)O)ccc12 | 1 (≈ 3.37 µM) | 3.3 (≈ 11.1 µM) | 10.6 (≈ 35.8 µM) | 7 (≈ 23.6 µM) | > 10 | 9.1 (≈ 30.7 µM) | 10 | 8.7 (≈ 29.4 µM) | 0.3 (≈ 1.01 µM) | 3
COc1cccc2c(O)c(-c3occ(C)c3C(=O)O)ccc12 | 3.5 (≈ 11.7 µM) | > 20 | 10.1 (≈ 33.9 µM) | 8.9 (≈ 29.8 µM) | > 10 | 9.7 (≈ 32.5 µM) | 33 | 8.2 (≈ 27.5 µM) | 0.6 (≈ 2.01 µM) | 6
COc1c(-c2occ(C)c2C(=O)O)ccc2ccccc12 | 16.7 (≈ 59.2 µM) | 18 (≈ 63.8 µM) |  |  |  |  |  |  |  | 
CCc1coc(-c2ccc3c(CC)cccc3c2O)c1C(=O)O | 5.4 (≈ 17.4 µM) | 5.1 (≈ 16.4 µM) |  |  |  |  |  |  |  | 
CCOc1cccc2c(O)c(-c3occ(C)c3C(=O)O)ccc12 | 6 (≈ 19.2 µM) | 7.5 (≈ 24 µM) |  |  |  |  |  |  |  | 
Cc1coc(-c2ccc3ccccc3c2O)c1C(=O)O | 7 (≈ 26.1 µM) | 6 (≈ 22.4 µM) |  |  |  |  |  |  |  | 
Cc1coc2c1c(=O)oc1cc(OC(C)C)ccc12 | 10.8 (≈ 41.8 µM) | 12 (≈ 46.5 µM) |  |  |  |  |  |  |  | 
COC(=O)c1c(C)coc1-c1ccc2ccccc2c1OC | 6.5 (≈ 21.9 µM) | 8.5 (≈ 28.7 µM) |  |  |  |  |  |  |  | 
CCc1cccc2c(OC)c(-c3occ(C)c3C(=O)O)ccc12 | 8.5 (≈ 27.4 µM) | 4.3 (≈ 13.9 µM) |  |  |  |  |  |  |  | 
CCc1cccc2c(O)c(-c3oc(C)c(C)c3C(=O)O)ccc12 | 10.4 (≈ 33.5 µM) | 8.5 (≈ 27.4 µM) |  |  |  |  |  |  |  | 
CCc1cccc2c(OC)c(-c3occ(C)c3C(=O)OC)ccc12 | 1.2 (≈ 3.7 µM) | 2.5 (≈ 7.71 µM) | 1.5 (≈ 4.62 µM) | 1.3 (≈ 4.01 µM) | 2.3 (≈ 7.09 µM) | 1.7 (≈ 5.24 µM) |  | 2.2 (≈ 6.78 µM) | 1.3 (≈ 4.01 µM) | 
